From US7626021B2, “Fused ring heterocycle kinase modulators” (SGX Pharmaceuticals, Inc., priority 2004, dated 2009) come the findings set out here.

The target of this test is T1, Abl Y393F (Mus musculus, UniProt P00520, Y393F).
T1 construct: 0.4 μg/ml Abl kinase domain; Met-Ser-Leu (vector-derived) (N); made in house
T1 sequence (P00520 242-493 Y393F limits assumed): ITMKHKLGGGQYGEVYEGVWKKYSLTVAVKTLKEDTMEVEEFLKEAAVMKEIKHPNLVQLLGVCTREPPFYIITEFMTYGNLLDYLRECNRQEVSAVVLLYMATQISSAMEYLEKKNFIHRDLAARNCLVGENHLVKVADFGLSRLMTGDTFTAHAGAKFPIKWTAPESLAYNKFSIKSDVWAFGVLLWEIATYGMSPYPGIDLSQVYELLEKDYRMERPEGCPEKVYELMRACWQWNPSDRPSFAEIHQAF
The test is described as follows: Abl Y393F kinase enzyme assay. The following applies: read-out: Abl_Y393F IC50. It is filed as biochemical. An excerpt:
Although the first of these examples uses the kinase domain of a mutant form of Abl T315I (“Abl T315I KD”), the kinase assays may use various forms of mutant and wild type enzymes, including, for example, the entire protein, the kinase domain, or a portion thereof (e.g. Abl Y393F). The kinases used in the assays may also be of varying phosphorylation states. In the c-Abl example, a mutant kinase at a zero phosphorylation state was used.
In addition to the c-Abl PK/LDH coupled assay (above), homogeneous luminescence-based inhibitor screening assays were developed for c-Abl, MET, AurA, and PDK1 kinases (among others). Each of these assays made use of an ATP depletion assay (Kinase-Glo™, Promega Corporation, Madison, Wis.) to quantitate kinase activity. The Kinase-Glo™ format uses a thermostable luciferase to generate luminescent signal from ATP remaining in solution following the kinase reaction. The luminescent signal is inversely correlated with the amount of kinase activity.
cAbl Luminescence-Based Enzyme Assay
Materials: Abl substrate peptide=EAIYAAPFAKKK SEQ ID NO:1)-OH (Biopeptide, San Diego, Calif.), ATP (Sigma Cat#A-3377, FW=551), HEPES buffer, pH 7.5, Bovine serum albumin (BSA) (Roche 92423420), MgCl2, Staurosporine (Streptomyces sp. Sigma Cat#85660-1MG), white Costar 384-well flat-bottom plate (VWR Cat#29444-088), Abl kinase (see below), Kinase-Glo™ (Promega Cat#V6712).
Stock Solutions: 10 mM Abl substrate peptide (13.4 mg/ml in miliQH2O) stored at −20° C.; 100 mM HEPES buffer, pH 7.5 (5 ml 1M stock+45 ml miliQH2O); 10 mM ATP (5.51 mg/ml in dH2O) stored at −20° C. (diluted […] into total of 10 ml miliQH2O daily=50 μM ATP working stock); 1% BSA (1 g BSA in 100 ml 0.1 M HEPES, pH 7.5, stored at −20° C.), 100 mM MgCl2; 200 μM Staurosporine, 2× Kinase-Glo™ reagent (made fresh or stored at −20° C.).
Standard Assay Setup for 384-well format (20 μl kinase reaction, 40 μl detection reaction): 10 mM MgCl2; 100 μM Abl substrate peptide; 0.1% BSA; 1 μl test compound (in DMSO); 0.4 μg/ml Abl kinase domain; 10 μM ATP; 100 mM HEPES buffer. Positive controls contained DMSO with no test compound. Negative controls contained 10 μM staurosporine. The kinase reactions were initiated at time t=0 by the addition of ATP. Kinase reactions were incubated at 21° C. for 30 min, then 20 μl of Kinase-Glo™ reagent were added to each well to quench the kinase reaction and initiate the luminescence reaction. After a 20 min incubation at 21° C., the luminescence was detected in a plate-reading luminometer.
As a reminder, the IC50 is the concentration needed to halve the response being measured. With `COc1ccccc1-c1n[nH]c2ncc(-c3cccc(C(=O)NC(C)C)c3)cc12`, the concentration for half-maximal inhibition (IC50) is less than 1000 nM. To `Cc1ccsc1-c1n[nH]c2ncc(-c3cccc(C(=O)N4CCOCC4)c3)cc12` belongs less than 1000 nM; to `CCOc1ccccc1-c1n[nH]c2ncc(-c3cccc(C(=O)N4CCOCC4)c3)cc12`, less than 1000 nM; to `COc1ccccc1-c1n[nH]c2ncc(-c3cccc(C(=O)N4CCN(C)CC4)c3)cc12`, less than 1000 nM. As for `c1ccc(-c2n[nH]c3ncc(-c4cccnc4)cc23)cc1`, the figure is less than 1000 nM; as for `COc1ccccc1-c1n[nH]c2ncc(-c3ccc(O)c(C(=O)N4CCOCC4)c3)cc12`, less than 1000 nM; as for `c1ccc(-c2n[nH]c3ncc(-c4ccc5[nH]ccc5c4)cc23)cc1`, less than 1000 nM.

For `O=C(c1cccc(-c2cnc3[nH]nc(-c4cccc5cccnc45)c3c2)c1)N1CCOCC1`, the IC50 was less than 1000 nM. As for `COc1ccccc1-c1n[nH]c2ncc(-c3ccc(C(=O)NC4CC4)cc3)cc12`, the figure is less than 1000 nM; as for `Cc1cc(F)ccc1-c1n[nH]c2ncc(-c3cccc(C(=O)N4CCOCC4)c3)cc12`, less than 1000 nM.

With `O=C(c1cccc(-c2cnc3[nH]nc(-c4ccc5cc[nH]c5c4)c3c2)c1)N1CCOCC1`, the 50% inhibitory concentration (IC50) is less than 1000 nM.

As to `COc1cc(-c2cnc3[nH]cc(-c4ccc(C)cc4)c3n2)ccc1O`, the IC50 was less than 1000 nM. To `COc1ccccc1-c1n[nH]c2ncc(-c3ccc(C(=O)N4CCOCC4)cc3)cc12` belongs less than 1000 nM. On to `COc1ccccc1-c1n[nH]c2ncc(-c3cccc(C(=O)N(C)C)c3)cc12`, for which the IC50 is less than 1000 nM. As to `COc1ccccc1-c1cnc2[nH]nc(-c3ccccc3OC)c2c1`, the IC50 was less than 1000 nM.

With `COc1ccccc1-c1n[nH]c2ncc(-c3cccc(S(=O)(=O)NC4CC4)c3)cc12`, the IC50 is less than 1000 nM.

`COc1ccccc1-c1n[nH]c2ncc(-c3cccc(C(=O)N4CCN(CCN(C)C)CC4)c3)cc12`: the IC50 was less than 1000 nM. To `CCN1CCN(C(=O)c2cccc(-c3cnc4[nH]nc(-c5cc(F)ccc5OC)c4c3)c2)CC1` belongs less than 1000 nM; to `COc1ccccc1-c1n[nH]c2ncc(-c3cccc(C(=O)N4CCC(CO)CC4)c3)cc12`, less than 1000 nM; to `Oc1cccc(-c2cnc3[nH]nc(-c4ccccc4)c3c2)c1`, less than 1000 nM. To `COc1ccccc1-c1n[nH]c2ncc(-c3cccc(C(=O)N4CCCC4)c3)cc12` belongs less than 1000 nM.

With `COc1ccccc1-c1n[nH]c2ncc(-c3cccnc3)cc12`, the half-inhibitory concentration (IC50) was less than 1000 nM. Turning to `COc1ccccc1-c1n[nH]c2ncc(-c3ccc(C(=O)N4CCCCC4)cc3)cc12`, the IC50 lay within 1000 to 10000 nM. To `COc1ccccc1-c1n[nH]c2ncc(-c3ccc(C(=O)N4CCN(C)CC4)cc3)cc12` belongs less than 1000 nM; to `COc1ccccc1-c1n[nH]c2ncc(-c3ccc(C(=O)N4CCCC4)cc3)cc12`, less than 1000 nM. As for `COc1ncc(-c2n[nH]c3ncc(-c4cccc(C(=O)N5CCOCC5)c4)cc23)c(OC)n1`, the figure is less than 1000 nM. On to `CCc1ccccc1-c1n[nH]c2ncc(-c3cccc(C(=O)N4CCOCC4)c3)cc12`, for which the half-inhibitory concentration (IC50) is less than 1000 nM. To `COc1ccccc1-c1c[nH]c2ncc(-c3cccc(C(=O)N(C)C)c3)nc12` belongs less than 1000 nM. As for `COc1c(F)cccc1-c1n[nH]c2ncc(-c3cccc(C(=O)N4CCOCC4)c3)cc12`, the figure is less than 1000 nM; as for `COc1ccccc1-c1n[nH]c2ncc(-c3cnc4[nH]n(C)c(=O)c4c3)cc12`, less than 1000 nM. As for `COc1ccccc1-c1n[nH]c2ncc(Br)cc12`, the figure is less than 1000 nM. With `Cn1ccc2cc(-c3n[nH]c4ncc(-c5cccc(C(=O)N6CCOCC6)c5)cc34)ccc21`, the IC50 was less than 1000 nM. With `COc1cc(-c2cnc3[nH]nc(-c4ccccc4)c3c2)ccc1O`, the IC50 is less than 1000 nM. As for `O=C(c1cccc(-c2cnc3[nH]nc(-c4ccncc4Cl)c3c2)c1)N1CCOCC1`, the figure is less than 1000 nM.
